Results: patent US20070049593A1 (priority 2004, published 2007)
Where a name gives a salt, the structure may show the parent alone.

Molecular target: T1, HCV polymerase (Hepatitis C virus genotype 1b, UniProt P26663)
T1 construct: a region encoding NS5B (J Virol 1991 March, 65(3), 1105-13, 544 amino acids after deletion of 47 amino acids on the C-terminal); 6xHis (C); made in house; host or cells: Escherichia coli
Assay: biochemical
Set-up: species or system HCV BK strain
Method in brief: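 Recombinant HCV BK-strain NS5B (C-terminal 47 aa deleted, His6-tagged, E. coli), 0.5 μg/ml, run with 5 μg/ml in vitro-transcribed RNA template (polyU/3′X), ATP/GTP/CTP 50 μM, UTP 2 μM plus [3H]UTP, pH 7.5, 25° C, 90 min. TCA-precipitated RNA counted by scintillation; IC50 from activity with vs without compound.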

T1 sequence (P26663 2420-2963): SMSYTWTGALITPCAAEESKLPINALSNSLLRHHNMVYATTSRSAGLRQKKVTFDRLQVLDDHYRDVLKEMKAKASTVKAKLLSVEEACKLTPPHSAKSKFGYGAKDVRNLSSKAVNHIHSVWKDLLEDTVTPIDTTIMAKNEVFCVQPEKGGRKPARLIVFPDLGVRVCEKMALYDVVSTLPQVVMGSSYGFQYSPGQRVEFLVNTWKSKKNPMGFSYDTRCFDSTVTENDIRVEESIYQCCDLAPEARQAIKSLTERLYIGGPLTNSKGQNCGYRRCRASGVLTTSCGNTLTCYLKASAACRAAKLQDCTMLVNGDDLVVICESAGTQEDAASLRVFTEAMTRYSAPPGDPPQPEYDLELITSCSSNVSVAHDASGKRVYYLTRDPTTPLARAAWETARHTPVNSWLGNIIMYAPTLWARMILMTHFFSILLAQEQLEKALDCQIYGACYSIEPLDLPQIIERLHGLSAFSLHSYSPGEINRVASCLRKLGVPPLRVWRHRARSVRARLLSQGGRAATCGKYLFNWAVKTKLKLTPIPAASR

SMILES	IC50
CS(=O)(=O)N1CCC(CCN2CCn3c(c(C4CCCCC4)c4ccc(C(=O)O)cc43)-c3ccccc32)CC1 [Example 1-94, 13-cyclohexyl-5-[2-(1-methanesulfonylpiperidin-4-yl)ethyl]-6,7-dihydro-5H-benzo[5,6][1,4]diazepino[7,1-a]indole-10-carboxylic acid monohydrochloride]	< 0.1 µM
CC(C)(C)OC(=O)N1CCN(CCN2CCn3c(c(C4CCCCC4)c4ccc(C(=O)O)cc43)-c3ccccc32)CC1 [Example 1-95, 5-[2-(4-tert-butoxycarbonylpiperazin-1-yl)ethyl]-13-cyclohexyl-6,7-dihydro-5H-benzo[5,6][1,4]diazepino[7,1-a]indole-10-carboxylic acid dihydrochloride]	< 0.1 µM
CCN1CCN(C(=O)CN2CCn3c(c(C4CCCCC4)c4ccc(-c5nn[nH]n5)cc43)-c3ccccc32)CC1 [Example 1-96, 2-[13-cyclohexyl-10-(2H-tetrazol-5-yl)-6,7-dihydrobenzo[5,6][1,4]diazepino[7,1-a]indol-5-yl]-1-(4-ethylpiperazin-1-yl)ethanone]	< 0.1 µM
CCOC(=O)N1CCN(CCN2CCn3c(c(C4CCCCC4)c4ccc(C(=O)O)cc43)-c3ccccc32)CC1 [Example 1-97, 13-cyclohexyl-5-[2-(4-ethoxycarbonylpiperazin-1-yl)ethyl]-6,7-dihydro-5H-benzo[5,6][1,4]diazepino[7,1-a]indole-10-carboxylic acid dihydrochloride]	< 0.1 µM
CC(=O)N1CCN(CCN2CCn3c(c(C4CCCCC4)c4ccc(C(=O)O)cc43)-c3ccccc32)CC1 [Example 1-98, 5-[2-(4-acetylpiperazin-1-yl)ethyl]-13-cyclohexyl-6,7-dihydro-5H-benzo[5,6][1,4]diazepino[7,1-a]indole-10-carboxylic acid dihydrochloride]	< 0.1 µM
CN(C)CCN1CCn2c(c(C3CCCCC3)c3ccc(C(=O)O)cc32)-c2ccccc21 [Example 1-99, 13-cyclohexyl-5-(2-dimethylaminoethyl)-6,7-dihydro-5H-benzo[5,6][1,4]diazepino[7,1-a]indole-10-carboxylic acid dihydrochloride]	< 0.1 µM
O=C(O)c1ccc2c(C3CCCCC3)c3n(c2c1)CCNc1cc(OCc2cc(N4CCCC4=O)ccc2N2CCOCC2)ccc1-3 [Example 1-100, 13-cyclohexyl-3-[2-(morpholin-4-yl)-5-(2-oxopyrrolidin-1-yl)benzyloxy]-6,7-dihydro-5H-benzo[5,6][1,4]diazepino[7,1-a]indole-10-carboxylic acid dihydrochloride]	< 0.1 µM
CS(=O)(=O)c1ccc(N2CCOCC2)c(COc2ccc3c(c2)NCCn2c-3c(C3CCCCC3)c3ccc(C(=O)O)cc32)c1 [Example 1-101, 13-cyclohexyl-3-[5-methanesulfonyl-2-(morpholin-4-yl)benzyloxy]-6,7-dihydro-5H-benzo[5,6][1,4]diazepino[7,1-a]indole-10-carboxylic acid dihydrochloride]	< 0.1 µM
CCN1CCN(C(=O)CN2CCn3c(c(C4CCCCC4)c4ccc(C(=O)NC(C)=O)cc43)-c3ccccc32)CC1 [Example 1-102, N-acetyl-13-cyclohexyl-5-[2-(4-ethylpiperazin-1-yl)-2-oxoethyl]-6,7-dihydro-5H-benzo[5,6][1,4]diazepino[7,1-a]indole-10-carboxamide]	< 0.1 µM
CN1CCn2c(c(C3CCCCC3)c3ccc(C(=O)O)cc32)-c2ccc(OCc3cc(S(C)(=O)=O)ccc3N3CCOCC3)cc21 [Example 1-103, 13-cyclohexyl-3-[5-methanesulfonyl-2-(morpholin-4-yl)benzyloxy]-5-methyl-6,7-dihydro-5H-benzo[5,6][1,4]diazepino[7,1-a]indole-10-carboxylic acid dihydrochloride]	< 0.1 µM
COC(=O)N1CCN(CCN2CCn3c(c(C4CCCCC4)c4ccc(C(=O)O)cc43)-c3ccccc32)CC1 [Example 1-104, 13-cyclohexyl-5-[2-(4-methoxycarbonylpiperazin-1-yl)ethyl]-6,7-dihydro-5H-benzo[5,6][1,4]diazepino[7,1-a]indole-10-carboxylic acid dihydrochloride]	< 0.1 µM
O=C(O)c1ccc2c(C3CCCCC3)c3n(c2c1)CCN(CCCOC1CCCCO1)c1ccccc1-3 (centres unmarked) [Example 1-105, 13-cyclohexyl-5-[3-(tetrahydropyran-2-yloxy)propyl]-6,7-dihydro-5H-benzo[5,6][1,4]diazepino[7,1-a]indole-10-carboxylic acid]	< 0.1 µM
O=C(O)c1ccc2c(C3CCCCC3)c3n(c2c1)CCN(CC(=O)N1CCCC(O)C1)c1ccccc1-3 (centres unmarked) [Example 1-106, 13-cyclohexyl-5-[2-(3-hydroxypiperidin-1-yl)-2-oxoethyl]-6,7-dihydro-5H-benzo[5,6][1,4]diazepino[7,1-a]indole-10-carboxylic acid monohydrochloride]	< 0.1 µM
O=C(O)c1ccc2c(C3CCCCC3)c3n(c2c1)CCN(CCN1CCOCC1)c1cc(F)ccc1-3 [Example 1-107, 13-cyclohexyl-3-fluoro-5-[2-(morpholin-4-yl)ethyl]-6,7-dihydro-5H-benzo[5,6][1,4]diazepino[7,1-a]indole-10-carboxylic acid dihydrochloride]	< 0.1 µM
Cc1ccc2c(c1)N(CCN1CCCCC1)CCn1c-2c(C2CCCCC2)c2ccc(C(=O)O)cc21 [Example 1-108, 13-cyclohexyl-3-methyl-5-[2-(piperidin-1-yl)ethyl]-6,7-dihydro-5H-benzo[5,6][1,4]diazepino[7,1-a]indole-10-carboxylic acid dihydrochloride]	< 0.1 µM
O=C(O)c1ccc2c(C3CCCCC3)c3n(c2c1)CCN(CC(=O)N1CCOCC1)c1cc(F)ccc1-3 [Example 1-109, 13-cyclohexyl-3-fluoro-5-[2-(morpholin-4-yl)-2-oxoethyl]-6,7-dihydro-5H-benzo[5,6][1,4]diazepino[7,1-a]indole-10-carboxylic acid monohydrochloride]	< 0.1 µM
CCN1CCN(CCN2CCn3c(c(C4CCCCC4)c4ccc(C(=O)O)cc43)-c3ccc(C)cc32)CC1 [Example 1-110, 13-cyclohexyl-5-[2-(4-ethylpiperazin-1-yl)ethyl]-3-methyl-6,7-dihydro-5H-benzo[5,6][1,4]diazepino[7,1-a]indole-10-carboxylic acid trihydrochloride]	< 0.1 µM
O=C(O)c1ccc2c(C3CCCCC3)c3n(c2c1)CCN(CCCN1CCCCC1)c1ccccc1-3 [Example 1-111, 13-cyclohexyl-5-[3-(piperidin-1-yl)propyl]-6,7-dihydro-5H-benzo[5,6][1,4]diazepino[7,1-a]indole-10-carboxylic acid dihydrochloride]	< 0.1 µM
O=C(O)c1ccc2c(C3CCCCC3)c3n(c2c1)CCN(CCCO)c1ccccc1-3 [Example 1-112, 13-cyclohexyl-5-(3-hydroxypropyl)-6,7-dihydro-5H-benzo[5,6][1,4]diazepino[7,1-a]indole-10-carboxylic acid monohydrochloride]	< 0.1 µM
O=C(O)c1ccc2c(C3CCCCC3)c3n(c2c1)CCN(CCN1CCCC(O)C1)c1ccccc1-3 (centres unmarked) [Example 1-113, 13-cyclohexyl-5-[2-(3-hydroxypiperidin-1-yl)ethyl]-6,7-dihydro-5H-benzo[5,6][1,4]diazepino[7,1-a]indole-10-carboxylic acid dihydrochloride]	< 0.1 µM
